System: d-U937 cells
Assay: Cell viability: MTT assay
Assay type: cell-based, human
Details: 1 μg/mL
Description: Differentiated U937 cells were pre-incubated with each test compound (final concentration 1 μg/mL or 10 μg/mL in 200 μL media indicated below) under two protocols: the first for 4 hr in 5% FCS RPMI1640 media and the second in 10% FCS RPMI1640 media for 24 h. The supernatant was replaced with new media (200 μL) and MTT stock solution (10 μL, 5 mg/mL) was added to each well. After incubation for 1 hr the media were removed, DMSO (200 μL) was added to each well and the plates were shaken lightly for 1 hr prior to reading the absorbance at 550 nm. The percentage loss of cell viability was calculated for each well relative to vehicle (0.5% DMSO) treatment. Consequently an apparent increase in cell viability for drug treatment relative to vehicle is tabulated as a negative percentage.

Row | Compound | MTT Assay Cell viability at time point in d-U937 Cells 4 h | MTT Assay Cell viability at time point in d-U937 Cells 24 h
1 | Cc1ccc(Nc2nccc(Oc3ccc(NC(=O)Nc4cc(C(C)(C)C)nn4-c4ccc(C)cc4)c4ccccc34)n2)cc1 [Example 11, 1-(3-(tert-butyl)-1-(p-tolyl)-1H-pyrazol-5-yl)-3-(4-((2-(p-tolylamino)pyrimidin-4-yl)oxy)naphthalen-1-yl)urea] | −ve (−ve and +ve indicate the value is below and above respectively, the no significant effect threshold defined as 30% inhibition at 1 μg/mL at the time point indicated) | −ve (−ve and +ve indicate the value is below and above respectively, the no significant effect threshold defined as 30% inhibition at 1 μg/mL at the time point indicated)
2 | Cc1ccc(-n2nc(C(C)(C)C)cc2NC(=O)Nc2ccc(Oc3ccnc(Nc4ccccc4C)n3)c3ccccc23)cc1 [Example 21, 1-(3-(tert-butyl)-1-(p-tolyl)-1H-pyrazol-5-yl)-3-(4-((2-(o-tolylamino)pyrimidin-4-yl)oxy)naphthalen-1-yl)urea] | −ve (−ve and +ve indicate the value is below and above respectively, the no significant effect threshold defined as 30% inhibition at 1 μg/mL at the time point indicated) | −ve (−ve and +ve indicate the value is below and above respectively, the no significant effect threshold defined as 30% inhibition at 1 μg/mL at the time point indicated)
3 | Cc1ccc(-n2nc(C(C)(C)C)cc2NC(=O)Nc2ccc(Oc3ccnc(Nc4ccc(O)cc4Cl)n3)c3ccccc23)cc1 [Example 31, 1-(3-(tert-butyl)-1-(p-tolyl)-1H-pyrazol-5-yl)-3-(4-((2-((2-chloro-4-hydroxyphenyl)amino)pyrimidin-4-yl)oxy)naphthalen-1-yl)urea] | −ve (−ve and +ve indicate the value is below and above respectively, the no significant effect threshold defined as 30% inhibition at 1 μg/mL at the time point indicated) | −ve (−ve and +ve indicate the value is below and above respectively, the no significant effect threshold defined as 30% inhibition at 1 μg/mL at the time point indicated)
4 | Cc1ccc(-n2nc(C(C)(C)C)cc2NC(=O)Nc2ccc(Oc3ccnc(Nc4ccc(O)cc4)n3)c3ccccc23)cc1 [Example 9, 1-(3-(tert-butyl)-1-(p-tolyl)-1H-pyrazol-5-yl)-3-(4-((2-((4-hydroxyphenyl)amino)pyrimidin-4-yl)oxy)naphthalen-1-yl)urea] | −ve (−ve and +ve indicate the value is below and above respectively, the no significant effect threshold defined as 30% inhibition at 1 μg/mL at the time point indicated) | −ve (−ve and +ve indicate the value is below and above respectively, the no significant effect threshold defined as 30% inhibition at 1 μg/mL at the time point indicated)
5 | Cc1ccc(-n2nc(C(C)(C)C)cc2NC(=O)Nc2ccc(Oc3ccnc(Nc4ccc(Cl)cc4C)n3)c3ccccc23)cc1 [Example 18, 1-(3-(tert-butyl)-1-(p-tolyl)-1H-pyrazol-5-yl)-3-(4-((2-((4-chloro-2-methylphenyl)amino)pyrimidin-4-yl)oxy)naphthalen-1-yl)urea] | −ve (−ve and +ve indicate the value is below and above respectively, the no significant effect threshold defined as 30% inhibition at 1 μg/mL at the time point indicated) | −ve (−ve and +ve indicate the value is below and above respectively, the no significant effect threshold defined as 30% inhibition at 1 μg/mL at the time point indicated)
6 | COc1ccc(-n2nc(C(C)(C)C)cc2NC(=O)Nc2ccc(Oc3ccnc(Nc4ccc(O)cc4)n3)c3ccccc23)cc1 [Example 33, 1-(3-(tert-butyl)-1-(4-methoxyphenyl)-1H-pyrazol-5-yl)-3-(4-((2-((4-hydroxyphenyl)amino)pyrimidin-4-yl)oxy)naphthalen-1-yl)urea] | −ve (−ve and +ve indicate the value is below and above respectively, the no significant effect threshold defined as 30% inhibition at 1 μg/mL at the time point indicated) | −ve (−ve and +ve indicate the value is below and above respectively, the no significant effect threshold defined as 30% inhibition at 1 μg/mL at the time point indicated)
7 | Cc1ccc(-n2nc(C(C)(C)C)cc2NC(=O)Nc2ccc(Oc3ccnc(Nc4cccc(Cl)c4)n3)c3ccccc23)cc1 [Example 13, 1-(3-(tert-butyl)-1-(p-tolyl)-1H-pyrazol-5-yl)-3-(4-((2-((3-chlorophenyl)amino)pyrimidin-4-yl)oxy)naphthalen-1-yl)urea] | −ve (−ve and +ve indicate the value is below and above respectively, the no significant effect threshold defined as 30% inhibition at 1 μg/mL at the time point indicated) | −ve (−ve and +ve indicate the value is below and above respectively, the no significant effect threshold defined as 30% inhibition at 1 μg/mL at the time point indicated)
8 | COc1cc(Nc2nccc(Oc3ccc(NC(=O)Nc4cc(C(C)(C)C)nn4-c4ccc(C)cc4)c4ccccc34)n2)ccc1O [Example 25, 1-(3-(tert-butyl)-1-(p-tolyl)-1H-pyrazol-5-yl)-3-(4-((2-((4-hydroxy-3-methoxyphenyl)amino)pyrimidin-4-yl)oxy)naphthalen-1-yl)urea] | −ve (−ve and +ve indicate the value is below and above respectively, the no significant effect threshold defined as 30% inhibition at 1 μg/mL at the time point indicated) | −ve (−ve and +ve indicate the value is below and above respectively, the no significant effect threshold defined as 30% inhibition at 1 μg/mL at the time point indicated)
9 | CCOc1ccc(Nc2nccc(Oc3ccc(NC(=O)Nc4cc(C(C)(C)C)nn4-c4ccc(C)cc4)c4ccccc34)n2)cc1 [Example 22, 1-(3-(tert-butyl)-1-(p-tolyl)-1H-pyrazol-5-yl)-3-(4-((2-((4-ethoxyphenyl)amino)pyrimidin-4-yl)oxy)naphthalen-1-yl)urea] | −ve (−ve and +ve indicate the value is below and above respectively, the no significant effect threshold defined as 30% inhibition at 1 μg/mL at the time point indicated) | −ve (−ve and +ve indicate the value is below and above respectively, the no significant effect threshold defined as 30% inhibition at 1 μg/mL at the time point indicated)
10 | COc1ccc(Nc2nccc(Oc3ccc(NC(=O)Nc4cc(C(C)(C)C)nn4-c4ccc(C)cc4)c4ccccc34)n2)cc1Cl [Example 28, 1-(3-(tert-butyl)-1-(p-tolyl)-1H-pyrazol-5-yl)-3-(4-((2-((3-chloro-4-methoxyphenyl)amino)pyrimidin-4-yl)oxy)naphthalen-1-yl)urea] | −ve (−ve and +ve indicate the value is below and above respectively, the no significant effect threshold defined as 30% inhibition at 1 μg/mL at the time point indicated) | −ve (−ve and +ve indicate the value is below and above respectively, the no significant effect threshold defined as 30% inhibition at 1 μg/mL at the time point indicated)

— patent publication US9993478B2, “1-pyrazolyl-3-(4-((2-anilinopyrimidin-4-yl) oxy) napththalen-1-yl) ureas as P38 MAP knase inhibitors” (Respivert Ltd., priority 2011, dated 2018)
